Consider one molecule from patent US7781580B2, “Stilbene derivatives as new cancer therapeutic agents” (Virginia Commonwealth University, priority 2007, dated 2010).

The structures appear in SMILES notation.

The subject of data set [1] is UCI101 ovarian cancer cells. In words: Western blot of signal transduction events, UCI101. It is filed as cell-based. On the procedure: All these agents are microtubule interfering agents but with different binding sites. Cells were harvested at 0, 4, 8, 16 and 36 hours after drug treatment for Western blot analysis. […] Phosphorylation of both Cdc25C and Cdc2 disappeared after 16 hours and slightly recovered at 36 hours. […] Akt phosphorylation decreased after 16 hours of treatment.
In order to understand the mechanism of resistance of stilbenes, various signal transduction pathways were investigated to examine how cells respond to stilbene treatment. UCI101 ovarian cancer cells were treated with stilbenes 4a, 4c or paclitaxel (Taxol) at 0.1 μM for 0, 4, 8, 16 and 36 hours. Cells were harvested for Western blotting. Changes in the kinases involved in cell cycle progression from G2-M transition were first determined in Cdc2, Cdc25c, and mitotic spindle check point regulator BubR1. […] 36 hours after treatment, rephosphorylation of Cdc2 was observed. […] The higher molecular weight isomer of Cdc25c, the mitotic form, increased at 16 and 36 hours. […] A similar study was then performed with other microtubule interfering agents such as combretastatin A4, 13a and vincristine for comparison. A similar trend was observed among these three microtubule interfering agents (FIG. 18).
In general terms: In western blotting, separated proteins are transferred to a membrane and probed.

Another data set has as its system Tubulin (>99% pure). In words: tubulin polymerization assay (OD 340 nm). It is filed as biochemical. Particulars: OD340 nm; nocodazole and paclitaxel 10 μM. On the procedure:
FIG. 3a-d. Stilbenes inhibit tubulin polymerization. (a) Effect of stilbene 4a. Pure tubulin was incubated with various concentrations of stilbene 4a, 10 μM nocodazole, and 10 μM paclitaxel in the polymerization buffer. The OD at 340 nm was monitored every minute by SpectraMAX 250 and plotted against time. (b) Effect of stilbene 4c. (c) Comparison of same concentrations of stilbenes 4a, 4a trans, 4c and 4c trans with control. […] Tubulin was incubated with [^3H]-colchicine and various concentrations of different stilbenes for 20 min. Tubulin was then separated from the unbound [^3H]-colchicine by Microcon-30 and washed three times with PBS. The radioactivity of the tubulin was counted. […] All experiments were done in triplicates.
The tubulin polymerization assay kit was purchased from Cytoskeleton (Denver, Colo.). Tubulin (>99% pure) was mixed with general tubulin buffer (GTB, 80 mM PIPES pH 6.9, 2 mM MgCl2, 0.5 mM EGTA, and 1 mM GTP) in a 96-well plate at 37° C. Absorbance at 340 nm was measured every 1 min for 60 min by SpectraMAX 250 (Molecular Devices, Sunnyville, Calif.). Analysis of the results was performed by SoftMAX Pro version 1.2.0 from the same company.

The subject of data set [2] is tubulin (colchicine site). The experiment in a line: [3H]-colchicine competition for binding tubulin. Conditions: 20 min, 37° C. On the procedure: FIG. 3a-d. […] (a) Effect of stilbene 4a. Pure tubulin was incubated with various concentrations of stilbene 4a, 10 μM nocodazole, and 10 μM paclitaxel in the polymerization buffer. The OD at 340 nm was monitored every minute by SpectraMAX 250 and plotted against time. (b) Effect of stilbene 4c. (c) Comparison of same concentrations of stilbenes 4a, 4a trans, 4c and 4c trans with control. […] The radioactivity of the tubulin was counted. […] All experiments were done in triplicates.
Tubulin retained in the Microcon was washed three times with PBS. The radioactivity of the final concentrated tubulin was determined by a scintillation counter.

The subject of data set [3] is c-kit positive marrow progenitor cells. The experiment in a line: bone marrow c-kit-positive progenitor cells: cell cycle and colony forming assay. The data set is classed as cell-based. On the procedure:
FIG. 16. (a) Effect of stilbenes in normal bone marrow progenitor cells. c-kit-positive bone marrow mononuclear cells were isolated for incubation with stilbenes 4a or 4c at 0.1 or 0.5 […] for 16 hours. Cells were harvested for fixation and PI staining. Cell cycle analysis and quantification of the subG0/1 population were analyzed by FACScan flow cytometry. The percentages of the apoptotic population were indicated. Shown are the representatives of two independent experiments. (b) Effect of stilbenes in HL60 cells as positive control. HL60 cells were treated with stilbenes 4a or 4c in the same medium as the positive control. (c) Colony forming assay of the stilbene-treated c-kit-positive cells. A fraction of the cells in (a) were diluted and plated on methylcellulose medium at various densities. Cells were incubated for 14 days and the grossly visible colonies were counted. […] Isolated bone marrow c-kit-positive progenitor cells were incubated with DMSO or stilbenes 4a or 4c at 0.1 or 0.5 μM for 16 hours and injected into tail veins of CD45 congenic mice lethally irradiated with 1200 cGy. Mice were monitored for survival and lineage-specific donor engraftment by flow cytometry analysis of peripheral blood. The percentage of donor cells in T, B, and granulocytic series of the recipients were studied at 7 and 14 weeks after transplantation. Stilbene treated c-Kit progenitor cells had the same percentage as the DMSO treated control in all series.
Mouse bone marrow was harvested from femur and tibia of […], subjected to red blood cell lysis, and labeled with anti-c-kit (3C11; CALTAG Laboratories, Burlingame, Calif.) and streptavidin-conjugated microbeads for MACS separation (Miltenyi Biotech, Auburn, Calif.). The c-kit positive marrow progenitor cells were incubated in Iscove's Modified Eagle's Media supplemented with 30% fetal bovine serum, erythropoietin, stem cell factor and interleukin-3 with or without stilbenes 4a or 4c. The ability of long-term proliferation of the c-kit-positive cells was evaluated with colony forming assay. Cells were first treated with DMSO, stilbenes 4a or 4c for 5 h and a fraction of the cells (4000 cells) were plated in the same enriched culture media with methylcellulose for colony forming assays. The grossly visible colonies were counted after 14 days of incubation.

The subject of data set [4] is SNU423 hepatocellular carcinoma cells. The experiment in a line: Alamar Blue cell growth inhibition, SNU423. The data set is classed as cell-based. Conditions: SNU423. On the procedure:
Cell growth was measured by Alamar Blue™ staining and the OD absorbance at 570 and 600 nm was determined by a microplate reader. The percentage of cell growth inhibition was calculated and compared with the control cells that were treated with 0.1% DMSO, the vehicle for the stilbene compounds.
Various cancer cell lines were grown in 96-well plates for drug sensitivity assays. Once cells achieved 50% confluence, the incubation media was changed to the same cell growth media with different concentrations of the tested compounds or vehicle alone. Cells were then incubated for 48 hours before the cell growth inhibition study. To determine the degree of cell growth inhibition, 1/10 volume of Alamar Blue™ solution was added to each well and optical density (OD) at 570 and 600 nm was determined. The percentage of growth inhibition was calculated according to the manufacturer's formula as follows: The percentage of growth is [(117216×A570)−(80586×A600)]/[(117216×A^o570)−(80586×A^o600)]×100. In this formula, A570 is the absorbance of the treated samples at 570 nm; A600 is the absorbance of the treated samples at 600 nm; A^o570 is the absorbance of the […] samples at 570 nm; and A^o600 is the absorbance of the untreated samples at 600 nm. The two constants, 117216 and 80586, are the extinction coefficients of Alamar Blue™ at 570 and 600 nm respectively. Each concentration was repeated in triplicate to minimize the error.
We first tested the cytotoxic effect of various stilbene derivatives for their in vitro efficacy of suppressing tumor cell proliferation. Cells were first plated in 96-well plates at 50% confluence and treated with 0, 0.01, 0.03, 0.1, 0.3, 1.0, 3.0, 10 μM concentrations of stilbene derivatives for 48 hours in triplicate. Alamar Blue™ reagent was added into each well at 1/10 volume and incubated for 2 hours before quantification of the absorbance at 570 and 600 nm.
(Resazurin is reduced to fluorescent resorufin, in cell work by metabolically active cells.)

Data set [5] deals with c-kit-positive progenitor cells (engraftment). The experiment in a line: bone marrow transplantation of stilbene-treated progenitor cells. The data set is classed as in vivo, mice. Conditions: cells incubated at 0.1 or 0.5 μM for 16 hours. On the procedure: FIG. 16. (a) Effect of stilbenes in normal bone marrow progenitor cells. c-kit-positive bone marrow mononuclear cells were isolated for incubation with stilbenes 4a or 4c at 0.1 or 0.5 […] for 16 hours. Cells were harvested for fixation and PI staining. Cell cycle analysis and quantification of the subG0/1 population were analyzed by FACScan flow cytometry. The percentages of the apoptotic population were indicated. Shown are the representatives of two independent experiments. (b) Effect of stilbenes in HL60 cells as positive control. HL60 cells were treated with stilbenes 4a or 4c in the same medium as the positive control. (c) Colony forming assay of the stilbene-treated c-kit-positive cells. […] Cells were incubated for 14 days and the grossly visible colonies were counted. […] Mice were monitored for survival and lineage-specific donor engraftment by flow cytometry analysis of peripheral blood. […]
C57BL/6J (H2b, CD45.2) mice served as bone marrow donors and were between 6-10 weeks of age. […] Peripheral blood engraftment in recipient mice was assessed by flow cytometry analysis for CD3+ (145-2C11; BD Biosciences, San Jose, Calif.) T-cells, B220+ (RA3-6B2) B-cells, Mac1+ (M1/70.15) monocytes, and Gr1+ (8C5) granulocytes and distinguished between donor versus recipient with anti-CD45.1 (A20) and anti-CD45.2 (104) monoclonal antibodies.

With `COc1cc(/C=C\c2ccc(OC)c(O)c2)cc(OC)c1` [4c, (Z)5-[2-(3,5-Dimethoxy-phenyl)-vinyl]-2-methoxy-phenol], the “phosphorylation of Stat3” value in data set [1] (0.1 μM) was “transient increase in phosphorylation at 4 and 8 hours”. Besides, the “phosphorylation of Cdc2 at Tyr15” value in data set [1] (0.1 μM, 16 hours) is reported as “decreased dramatically”. Besides, the “phosphorylation of Chk1” value in data set [1] (36 hours) was “do not cause more phosphorylation of Chk1”. The “effect on tubulin polymerization” value in the data set on Tubulin (>99% pure) is reported as “suppressed tubulin polymerization in a dose-dependent manner but less potent than stilbene 4a”. Also, in data set [2], the “competition with [3H]-colchicine for tubulin” value was “dose-dependent suppression of tubulin-colchicine interaction”. In addition, in data set [3], the “cell cycle of marrow progenitor cells at 0.1 μM” value is “not affected” and the “toxicity to normal bone marrow progenitor cells versus leukemia cells” value is recorded as “much less toxic to normal bone marrow progenitor cells”. Moreover, the “cell cycle of marrow progenitor cells at 0.5 μM” value in data set [3] (BALB/c, mouse, 16 h, 0.5 μM) was “small increase in subG0/1 and G2 population”. Besides, the “relative potency” value in data set [4] was “much more potent than the trans counterparts”. Further, in data set [5], the “radioprotection of lethally irradiated mice by treated progenitor cells” value is listed as “all mice were rescued from lethal irradiation”.
